Data reported in PMC10649008 (Antimicrobial Agents and Chemotherapy, 2023).
Values joined by “and” are separate entries in the source; they are usually repeats but may differ in a detail not shown here. Equal entries are not always repeated. Where two headings read alike, the source gives them in different places.

What was measured:
[1] = Healthy adults, N = 42, single 10 mg/kg IV dose, mean ± SD, cited from earlier work
[2] = post-dose, single 10 mg/kg IV
Experimental: Safety was monitored during both the screening and treatment periods by physical exams, vital signs, urinalysis, and clinical laboratory measures (complete blood count with differential, serum chemistry, creatinine, and liver enzymes); AEs and concomitant medications were recorded from screening through follow-up on Day 8 (± 1 day). Medical and medication history and demographics were collected at screening. Vital signs (heart rate, blood pressure, respiratory rate, and body temperature) were collected at screening, Days 1 and 2 of the study.

[3] = Single-dose plasma pharmacokinetics of telavancin in pediatric subjects (noncompartmental analysis); format: in vivo, human; settings: single 10 mg/kg IV infusion over 60 min, mean ± SD
Experimental: The drug was infused over 60 min on Day 1. Blood samples were collected at 1, 1.5, 2, 6, 12, and 24 h following the start of infusion for PK analysis.
Subjects with missing early PK samples were included in the PK population for plasma concentrations at each collected time point, but they were excluded from the PK modeling. […] The primary endpoints calculated from the plasma concentration-time data were maximum observed plasma concentration (C max), time to reach maximum plasma concentration (T max), area under the plasma concentration versus time curve from time 0 to the last sample with measurable analyte concentration (AUC0-last), area under the concentration versus time curve extrapolated to infinity (AUCinf), and terminal elimination half-life (T 1/2). CL and apparent steady-state volume of distribution (Vss) were also calculated from the plasma concentration-time data. PK parameters were calculated using noncompartmental analysis with Phoenix WinNonlin v8.1 (Certara, Princeton, NJ, USA).
For calculation of mean concentrations at each time point and generation for mean concentration versus time profiles, all values below the limit of quantification (BLQ) were set to 0. […] For the NCA, actual infusion durations and actual sampling times were used. Infusion duration was calculated as the difference between the start of infusion time and the end of infusion time. Actual sampling times were calculated as the difference between the start of infusion time and the sampling time.
For PK analysis and individual concentration versus time plots, a concentration that was BLQ was assigned a value of 0, if it occurred in a profile before the first measurable concentration and was set to missing thereafter, if two BLQ values occurred in succession after C max, the profile was deemed to have terminated at the first BLQ value, and any subsequent concentrations were omitted from PK calculations.

[4] = Cohort 2 (6–11 years), N = 6, plasma, noncompartmental

For CCCCCCCCCCNCCN[C@@]1(C)C[C@H](O[C@H]2[C@H](Oc3c4cc5cc3Oc3ccc(cc3Cl)[C@@H](O)[C@@H](NC(=O)[C@@H](CC(C)C)NC)C(=O)N[C@@H](CC(N)=O)C(=O)N[C@H]5C(=O)N[C@H]3C(=O)N[C@H](C(=O)N[C@H](C(=O)O)c5cc(O)c(CNCP(=O)(O)O)c(O)c5-c5cc3ccc5O)[C@H](O)c3ccc(c(Cl)c3)O4)O[C@H](CO)[C@@H](O)[C@@H]2O)O[C@@H](C)[C@H]1O [telavancin], the “AUC0-inf (area under the curve extrapolated to infinity)” value ([1]; 10 mg/kg) is given as 747 µg·h/mL and 747 ± 129 µg·h/mL, the “T 1/2 (terminal elimination half-life)” value ([1]; 10 mg/kg) is given as 8.0 h and 8.0 ± 1.5 h and the “C max (maximum plasma concentration)” value [1] is given as 93.6 ± 14.2 µg/mL. For the same molecule, the “CL (clearance)” value [1] was 13.9 ± 2.9 mL/h/kg, the Creatinine ([2]; Cohort 1 (12 to 17 years), 9 subjects, pre-dose 0.6 ± 0.2 (N = 14)) was 1.0 ± 1.1 mg/dL and the Total bilirubin ([2]; Cohort 1 (12 to 17 years), 9 subjects, pre-dose 0.6 ± 0.3 (N = 14)) was 0.3 ± 0.2 mg/dL. The Leukocytes ([2]; Cohort 1 (12 to 17 years), 9 subjects, pre-dose 10.3 ± 3.1 (N = 14)) was 7.3 ± 2.0 x10^9/L, the Hemoglobin ([2]; Cohort 1 (12 to 17 years), 9 subjects, pre-dose 12.2 ± 1.7 (N = 14)) was 12.1 ± 1.4 g/dL and the Alanine aminotransferase ([2]; Cohort 1 (12 to 17 years), 9 subjects, pre-dose 25.9 ± 15.1 (N = 14)) was 37.4 ± 24.2 IU/L. For the same molecule, the Aspartate aminotransferase ([2]; Cohort 1 (12 to 17 years), 9 subjects, pre-dose 50.9 ± 56.2 (N = 14)) was 72.8 ± 72.0 IU/L, the Platelets ([2]; Cohort 1 (12 to 17 years), 9 subjects, pre-dose 226 ± 69.1 (N = 14)) was 236 ± 85.9 x10^9/L and the Lactate dehydrogenase ([2]; Cohort 1 (12 to 17 years), 9 subjects, pre-dose 361 ± 247 (N = 14)) was 439 ± 270 IU/L. The Creatinine ([2]; Cohort 2 (6 to 11 years), 6 subjects, pre-dose 0.4± 0.1 (N = 7)) was 0.4 ± 0.1 mg/dL, the Total bilirubin ([2]; Cohort 2 (6 to 11 years), 6 subjects, pre-dose 0.6 ± 0.5 (N = 7)) was 0.5 ± 0.3 mg/dL and the Leukocytes ([2]; Cohort 2 (6 to 11 years), 6 subjects, pre-dose 8.3 ± 3.0 (N = 7)) was 6.3 ± 1.3 x10^9/L. The Hemoglobin ([2]; Cohort 2 (6 to 11 years), 6 subjects, pre-dose 11.7 ± 1.4 (N = 7)) was 11.9 ± 1.4 g/dL, the Alanine aminotransferase ([2]; Cohort 2 (6 to 11 years), 6 subjects, pre-dose 30.9 ± 12.2 (N = 7)) was 36.8 ± 19.4 IU/L and the Aspartate aminotransferase ([2]; Cohort 2 (6 to 11 years), 6 subjects, pre-dose 41.6 ± 26.0 (N = 7)) was 46.7 ± 40.7 IU/L. The Platelets ([2]; Cohort 2 (6 to 11 years), 6 subjects, pre-dose 267 ± 73.6 (N = 7)) was 289 ± 105.5 x10^9/L, the Creatinine ([2]; Cohort 3 (2 to 5 years), N = 1, pre-dose 0.2 ± 0.0) was 0.2 ± 0.0 mg/dL and the Total bilirubin ([2]; Cohort 3 (2 to 5 years), N = 1, pre-dose 0.4 ± 0.0) was 0.4 ± 0.0 mg/dL. The Leukocytes ([2]; Cohort 3 (2 to 5 years), N = 1, pre-dose 4.6 ± 0.0) was 7.5 ± 0.0 x10^9/L, the Hemoglobin ([2]; Cohort 3 (2 to 5 years), N = 1, pre-dose 10.0 ± 0.0) was 10.3 ± 0.0 g/dL and the Aspartate aminotransferase ([2]; Cohort 3 (2 to 5 years), N = 1, pre-dose 41.0 ± 0.0) was 37.0 ± 0.0 IU/L. The Alanine aminotransferase ([2]; Cohort 3 (2 to 5 years), N = 1, pre-dose 72.0 ± 0.0) was 62.0 ± 0.0 IU/L, the Platelets ([2]; Cohort 3 (2 to 5 years), N = 1, pre-dose 148 ± 0.0) was 195 ± 0.0 x10^9/L and the Lactate dehydrogenase ([2]; Cohort 3 (2 to 5 years), N = 1, pre-dose 477 ± 0.0) was 480 ± 0.0 IU/L. For the same molecule, the “Mean plasma telavancin concentration” value ([3]; Cohort 1 (12–17 years), N = 13–14, nominal time 1 h after start of infusion) was 58.1 ± 8.38, the “Mean plasma telavancin concentration” value ([3]; Cohort 1 (12–17 years), N = 13–14, nominal time 1.5 h) was 46.2 ± 7.01 and the “Mean plasma telavancin concentration” value ([3]; Cohort 1 (12–17 years), N = 13–14, nominal time 2 h) was 37.4 ± 5.26. For the same molecule, the “Mean plasma telavancin concentration” value ([3]; Cohort 1 (12–17 years), N = 13–14, nominal time 6 h) was 19.8 ± 3.58, the “Mean plasma telavancin concentration” value ([3]; Cohort 1 (12–17 years), N = 13–14, nominal time 12 h) was 8.84 ± 3.51 and the “Mean plasma telavancin concentration” value ([3]; Cohort 1 (12–17 years), N = 13–14, nominal time 24 h) was 2.14 ± 0.922. The “CL (clearance)” value ([3]; Cohort 2 (6–11 years), N = 6) was 30.0 ± 8.1 mL/h/kg, the “AUC0-inf (area under the curve extrapolated to infinity)” value [3, 4] was 351 ± 79.7 µg·h/mL and the “AUC0-last (area under the curve from time zero until the last PK sample)” value [3, 4] was 333 ± 74.2 µg·h/mL. The “Mean plasma telavancin concentration” value ([3]; Cohort 2 (6–11 years), N = 6–7, nominal time 1 h after start of infusion) was 60.1 ± 11.9, the “Mean plasma telavancin concentration” value ([3]; Cohort 2 (6–11 years), N = 6–7, nominal time 1.5 h) was 48.4 ± 8.66 and the “Mean plasma telavancin concentration” value ([3]; Cohort 2 (6–11 years), N = 6–7, nominal time 2 h) was 41.9 ± 7.65. The “Mean plasma telavancin concentration” value ([3]; Cohort 2 (6–11 years), N = 6–7, nominal time 6 h) was 20.7 ± 3.64, the “Mean plasma telavancin concentration” value ([3]; Cohort 2 (6–11 years), N = 6–7, nominal time 12 h) was 9.20 ± 2.50 and the “Mean plasma telavancin concentration” value ([3]; Cohort 2 (6–11 years), N = 6–7, nominal time 24 h) was 2.08 ± 1.23.
